Experimental data taken from patent US20250319046A1, “PHENYLALANINE-BASED LAT1 INHIBITORS AND USES THEREOF” (MAXYMUNE THERAPEUTICS, INC., priority 2024, published 2025).

target: LAT1 (Homo sapiens (Human), UniProt Q01650); test: LAT1 uptake inhibition assay: [3H]-gabapentin competition uptake in LN229 cells; format: cell-based; settings: [3H]-gabapentin uptake, 15 min incubation in PBS, read-out: IC50, the concentration of test compound at which the [3H]-GP uptake was inhibited by 50%
Experimental: LAT1 Uptake Inhibition Assay
The ability of compounds to interact with LAT1 was measured using a radiolabeled competition uptake assay with [^3H]-Gabapentin ([^3H]-GP) (Perkin Elmer) in 96-well plates with LN229 cells (ATCC®). Ten (10)×10^3 (10,000) cells/well were plated in white, clear bottom plates and were allowed to grow for three (3) days. On the fourth day, the cells were washed and then incubated with 50,000 counts per minute (cpm) of [^3H]-GP in phosphate buffered saline (PBS) (VWR International) with increasing concentrations of test compounds in at least triplicate for 15 min. At end of the assay time, the incubation solution was removed, and plates were washed three times (3×) with 100 μL of ice-cold PBS buffer. One-hundred fifty (150) […] of scintillation fluid (VWR International) was added to each well, and the radioactivity retained within the cells was measured on a 96-well scintillation counter. Background uptake ([^3H]-GP uptake in the presence of 10 mM non-radiolabeled gabapentin (GP)) (MedKoo) was subtracted and data were normalized to the DMSO control ([^3H]-GP uptake in the absence of any competitor). Data were fitted to the Michaelis-Menten equation using GraphPad Prism (Version 8.2.0).

LAT1, sequence (Q01650 whole entry): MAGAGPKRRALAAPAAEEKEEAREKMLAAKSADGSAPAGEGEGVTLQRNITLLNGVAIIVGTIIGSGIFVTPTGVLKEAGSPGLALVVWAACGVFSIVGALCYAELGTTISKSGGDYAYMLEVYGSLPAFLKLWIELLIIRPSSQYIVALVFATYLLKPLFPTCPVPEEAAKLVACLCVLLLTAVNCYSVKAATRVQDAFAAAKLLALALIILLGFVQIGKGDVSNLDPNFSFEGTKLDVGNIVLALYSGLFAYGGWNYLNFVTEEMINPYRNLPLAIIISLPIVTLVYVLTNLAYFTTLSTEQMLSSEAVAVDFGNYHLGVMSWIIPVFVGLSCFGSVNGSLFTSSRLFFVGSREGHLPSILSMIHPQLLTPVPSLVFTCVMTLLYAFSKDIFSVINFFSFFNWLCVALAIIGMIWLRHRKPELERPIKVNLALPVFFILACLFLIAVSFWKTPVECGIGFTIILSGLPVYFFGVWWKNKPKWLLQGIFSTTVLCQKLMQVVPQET
LAT1, sequence (P08195 whole entry partner): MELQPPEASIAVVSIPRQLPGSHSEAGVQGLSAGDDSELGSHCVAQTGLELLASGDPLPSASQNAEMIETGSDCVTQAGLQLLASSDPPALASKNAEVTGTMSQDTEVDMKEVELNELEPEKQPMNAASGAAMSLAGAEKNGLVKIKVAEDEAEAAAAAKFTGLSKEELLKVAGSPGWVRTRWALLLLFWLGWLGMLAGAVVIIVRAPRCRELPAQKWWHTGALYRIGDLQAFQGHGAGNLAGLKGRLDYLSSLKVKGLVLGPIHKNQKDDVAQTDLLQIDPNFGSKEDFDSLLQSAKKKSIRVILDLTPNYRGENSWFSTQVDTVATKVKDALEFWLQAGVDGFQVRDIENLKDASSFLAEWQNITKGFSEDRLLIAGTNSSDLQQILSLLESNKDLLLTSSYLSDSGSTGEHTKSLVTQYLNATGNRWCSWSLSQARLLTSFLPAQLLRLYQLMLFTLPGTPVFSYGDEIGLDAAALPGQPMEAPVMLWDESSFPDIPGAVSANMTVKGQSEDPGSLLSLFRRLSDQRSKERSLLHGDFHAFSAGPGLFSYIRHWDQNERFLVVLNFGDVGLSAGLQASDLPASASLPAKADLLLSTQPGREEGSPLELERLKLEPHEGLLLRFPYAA

IC50 [nM] | Compound
100 to 1000 | Cc1ccc(NS(=O)(=O)c2cccc(N)c2)cc1C[C@H](N)C(=O)O [Compound 28, (S)-2-Amino-3-(5-((3-aminophenyl)sulfonamido)-2-methylphenyl)propanoic Acid]
≥ 10000 | N[C@@H](Cc1cccc(S(N)(=O)=O)c1)C(=O)O [Compound 71, (S)-2-Amino-3-(3-sulfamoylphenyl)propanoic Acid]
100 to 1000 | CN(C)c1cccc2c(S(=O)(=O)Nc3ccc(Cl)c(C[C@H](N)C(=O)O)c3)cccc12 [Compound 15, (S)-2-Amino-3-(2-chloro-5-((5-(dimethylamino)naphthalene)-1-sulfonamido)phenyl)propanoic Acid]
100 to 1000 | CN(C)c1cccc2c(S(=O)(=O)Nc3ccccc3C[C@H](N)C(=O)O)cccc12 [Compound 19, (S)-2-Amino-3-(2-((5-(dimethylamino)naphthalene)-1-sulfonamido)phenyl)propanoic Acid]
100 to 1000 | Cc1ccc(S(=O)(=O)Nc2ccc(Cl)c(Cl)c2)cc1C[C@H](N)C(=O)O [Compound 83, (S)-2-Amino-3-(5-(N-(3,4-dichlorophenyl)sulfamoyl)-2-methylphenyl)propanoic Acid]
100 to 1000 | Cc1ccc(NS(=O)(=O)C2CCCCC2)cc1C[C@H](N)C(=O)O [Compound 26, (S)-2-Amino-3-(5-(cyclohexanesulfonamido)-2-methylphenyl)propanoic Acid]
100 to 1000 | Cc1ccc(S(=O)(=O)NCC(C)C)cc1C[C@H](N)C(=O)O [Compound 46, (S)-2-Amino-3-(5-(N-isobutylsulfamoyl)-2-methylphenyl)propanoic Acid]
1000 to 10000 | N[C@@H](Cc1ccc(S(=O)(=O)Nc2ccc(Cl)cc2)cc1)C(=O)O [Compound 80, (S)-2-Amino-3-(4-(N-(4-chlorophenyl)sulfamoyl)phenyl)propanoic Acid]
1000 to 10000 | CN(C)c1cccc2c(S(=O)(=O)Nc3ccc(C[C@H](N)C(=O)O)cc3)cccc12 [Compound 4, (S)-2-amino-3-(4-((5-(dimethylamino)naphthalene)-1-sulfonamido)phenyl)propanoic acid]
100 to 1000 | CCCCS(=O)(=O)Nc1ccc(C)c(C[C@H](N)C(=O)O)c1 [Compound 58, (S)-2-Amino-3-(5-(butylsulfonamido)-2-methylphenyl)propanoic Acid]
100 to 1000 | Cc1ccc(C[S+]([O-])Cc2ccccc2)cc1C[C@H](N)C(=O)O (stereo partly drawn) [Compound 60, (2S)-2-Amino-3-(5-((benzylsulfinyl)methyl)-2-methylphenyl)propanoic Acid]
1000 to 10000 | Cc1ccc(NS(=O)(=O)c2cccc3nonc23)cc1C[C@H](N)C(=O)O [Compound 25, (S)-2-Amino-3-(5-(benzo[c][1,2,5]oxadiazole-4-sulfonamido)-2-methylphenyl)propanoic Acid]
≥ 10000 | Cc1ccc(NS(=O)(=O)c2cn(C)c(C)n2)cc1C[C@H](N)C(=O)O [Compound 18, (S)-2-Amino-3-(5-((1,2-dimethyl-1H-imidazole)-4-sulfonamido)-2-methylphenyl)propanoic Acid]
1000 to 10000 | N[C@@H](Cc1cccc(S(=O)(=O)N2CCCCC2)c1)C(=O)O [Compound 78, (S)-2-Amino-3-(3-(piperidin-1-ylsulfonyl)phenyl)propanoic Acid]
100 to 1000 | Cc1ccc(NS(=O)(=O)Cc2ccccc2)cc1C[C@H](N)C(=O)O [Compound 23, (S)-2-Amino-3-(2-methyl-5-((phenylmethyl)sulfonamido)phenyl)propanoic Acid]
≥ 10000 | CS(=O)(=O)Nc1ccc(C[C@H](N)C(=O)O)cc1 [Compound 70, (S)-2-Amino-3-(4-(methylsulfonamido)phenyl)propanoic Acid]
100 to 1000 | COc1ccc(NS(=O)(=O)c2cccc3c(N(C)C)cccc23)cc1C[C@H](N)C(=O)O [Compound 5, (S)-2-Amino-3-(5-((5-(dimethylamino)naphthalene)-1-sulfonamido)-2-methoxyphenyl)propanoic Acid]
100 to 1000 | Cc1cc(S(=O)(=O)Nc2ccc(Cl)cc2)ccc1C[C@H](N)C(=O)O [Compound 85, (S)-2-Amino-3-(4-(N-(4-chlorophenyl)sulfamoyl)-2-methylphenyl)propanoic Acid]
1000 to 10000 | N[C@@H](Cc1ccccc1S(=O)(=O)Nc1ccc(Cl)cc1)C(=O)O [Compound 81, (S)-2-Amino-3-(2-(N-(4-chlorophenyl)sulfamoyl)phenyl)propanoic Acid]

IC50 [nM] | Compound
1000 to 10000 | COc1cc(NS(=O)(=O)c2cccc3c(N(C)C)cccc23)ccc1C[C@H](N)C(=O)O [Compound 8, (S)-2-Amino-3-(4-((5-(dimethylamino)naphthalene)-1-sulfonamido)-2-methoxyphenyl)propanoic Acid]
100 to 1000 | Cc1ccc(S(=O)(=O)N(c2ccc(C)c(C[C@H](N)C(=O)O)c2)S(=O)(=O)c2ccc(C)cc2)cc1 [Compound 48, (S)-2-Amino-3-(2-methyl-5-((4-methyl-N-tosylphenyl)sulfonamido)phenyl)propanoic Acid]
100 to 1000 | Cc1ccc(S(=O)(=O)Nc2cccc(S(=O)(=O)Nc3ccc(C)c(C[C@H](N)C(=O)O)c3)c2)cc1 [Compound 32, (S)-2-Amino-3-(2-methyl-5-((3-((4-methylphenyl)sulfonamido)phenyl)sulfonamido)phenyl)propanoic Acid]
≥ 10000 | Cc1ccc(S(=O)(=O)N2CCC[C@@H]2C(=O)O)cc1C[C@H](N)C(=O)O [Compound 45, ((3-((S)-2-Amino-2-carboxyethyl)-4-methylphenyl)sulfonyl)-D-proline]
100 to 1000 | N[C@@H](Cc1cccc(NS(=O)(=O)c2ccccc2)c1)C(=O)O [Compound 37, (S)-2-Amino-3-(3-(phenylsulfonamido)phenyl)propanoic Acid]
100 to 1000 | Cc1ccc(NS(=O)(=O)c2cccc3c(N(C)C)cccc23)cc1C[C@H](N)C(=O)O [Compound 2, (S)-2-Amino-3-(5-((5-(dimethylamino)naphthalene)-1-sulfonamido)-2-methylphenyl)propanoic Acid]
1000 to 10000 | Cc1ccc(NS(=O)(=O)C[C@@]23CC[C@H](CC2=O)C3(C)C)cc1C[C@H](N)C(=O)O [Compound 22, (S)-2-Amino-3-(5-((((1R,4R)-7,7-dimethyl-2-oxobicyclo[2.2.1]heptan-1-yl)methyl)sulfonamido)-2-methylphenyl)propanoic Acid]
1000 to 10000 | Cc1ccc(NS(=O)(=O)C(C)C)cc1C[C@H](N)C(=O)O [Compound 20, (S)-2-Amino-3-(2-methyl-5-((1-methylethyl)sulfonamido)phenyl)propanoic Acid]
100 to 1000 | Cc1ccc(S(=O)(=O)Nc2ccc(S(=O)(=O)Nc3ccc(C)c(C[C@H](N)C(=O)O)c3)cc2)cc1 [Compound 33, (S)-2-Amino-3-(2-methyl-5-((4-((4-methylphenyl)sulfonamido)phenyl)sulfonamido)phenyl)propanoic Acid]
1000 to 10000 | Cc1ccc(NS(=O)(=O)c2c(Cl)cc(C(F)(F)F)cc2Cl)cc1C[C@H](N)C(=O)O [Compound 36, (S)-2-Amino-3-(5-((2,6-dichloro-4-(trifluoromethyl)phenyl)sulfonamido)-2-methylphenyl)propanoic Acid]
≥ 10000 | Cc1ccc(NS(=O)(=O)c2c[nH]cn2)cc1C[C@H](N)C(=O)O [Compound 31, (S)-3-(5-(1H-imidazole-4-sulfonamido)-2-methylphenyl)-2-aminopropanoic Acid]
1000 to 10000 | Cc1ccc(NS(=O)(=O)c2ccc(Cl)c3nonc23)cc1C[C@H](N)C(=O)O [Compound 24, (S)-2-Amino-3-(5-((7-chlorobenzo[c][1,2,5]oxadiazole)-4-sulfonamido)-2-methylphenyl)propanoic Acid]
20 to 100 | Cc1ccc(S(=O)(=O)N(C)c2ccc(Cl)cc2)cc1C[C@H](N)C(=O)O [Compound 84, (S)-2-Amino-3-(5-(N-(4-chlorophenyl)-N-methylsulfamoyl)-2-methylphenyl)propanoic Acid]
1000 to 10000 | Cc1ccc(NS(=O)(=O)C2CCOCC2)cc1C[C@H](N)C(=O)O [Compound 12, (S)-2-Amino-3-(2-methyl-5-((tetrahydro-2H-pyran)-4-sulfonamido)phenyl)propanoic Acid]
100 to 1000 | Cc1ccc(SCc2ccccc2)cc1C[C@H](N)C(=O)O [Compound 59, (S)-2-Amino-3-(5-(benzylthio)-2-methylphenyl)propanoic Acid]
100 to 1000 | Cc1ccc(NS(=O)(=O)c2cccc3ccccc23)cc1C[C@H](N)C(=O)O [Compound 6, (S)-2-Amino-3-(2-methyl-5-(naphthalene-1-sulfonamido)phenyl)propanoic Acid]
≥ 10000 | N[C@@H](Cc1ccc(S(N)(=O)=O)cc1)C(=O)O [Compound 74, (S)-2-Amino-3-(4-sulfamoylphenyl)propanoic acid]
100 to 1000 | Cc1ccc(NS(=O)(=O)c2csc3ccccc23)cc1C[C@H](N)C(=O)O [Compound 27, (S)-2-Amino-3-(5-(benzo[b]thiophene-3-sulfonamido)-2-methylphenyl)propanoic Acid]
1000 to 10000 | Cc1ccc(CNS(=O)(=O)Cc2ccccc2)cc1C[C@H](N)C(=O)O [Compound 54, (S)-2-Amino-3-(2-methyl-5-(((phenylmethyl)sulfonamido)methyl)phenyl)propanoic Acid]
